{"source": "patent US6730659B2", "about": "“Antimicrobial peptides and methods of use thereof” (The Board of Regents of the University of Oklahoma, priority 1999, dated 2004)", "key": {"S. typhimurium SH9178": {"test_system": "S. typhimurium SH9178", "test": "in vitro bactericidal activity, S. typhimurium SH9178", "format": "cell-based, Salmonella typhimurium", "experimental": "(§1) Methods used herein are those previously described in U.S. Pat. Nos. 5,607,916; 5,627,262; and 5,650,392.\n(§2) Peptides 20-44, 20-44ser26 and 20-44ser42, were assayed for bactericidal activity using S. typhimurium SH9178 as the test organism. […] Peptide 20-44ser42 killed 97.8% of bacteria at 75 μM, and peptide 20-44ser26 killed 99.6% of bacteria at 75 μM. Importantly, at concentrations of only 12.5 μM, peptide 20-44ser26 killed 70.4% of organisms and peptide 20-44ser42 killed 66.6% of bacteria. We tested these peptides with the smooth, more virulent LT2 strain of S. typhimurium, (FIG. 3). […] Indeed, the two serine analogs, 20-44ser26 and 20-44ser42 were able to kill 73% and 65% of bacteria at 12.5 μM, the lowest concentration of peptide tested. These levels of mortality were very much greater than those obtained using peptide 20-44. Two other organisms, Staphylococcus aureus ATCC strain 25923 and Enterococcus faecalis (a clinical isolate), both of which are gram-positive organisms, were also tested against 20-44ser26 and 20-44ser42."}, "[1]": {"test_system": "LT2 strain of S. typhimurium", "format": "cell-based", "settings": "12.5 μM, lowest concentration tested, FIG. 3", "experimental": "as §1, §2"}, "[2]": {"format": "physicochemical", "excerpt": "In addition to the Increased potency of peptide 20-44ser42 and 20-44ser26, these two peptides have technical advantages over the parent peptide 20-44. The two new analogs are easier to synthesize and purify because the internal disulfide bonding between the two cysteine residues can no longer occur."}, "S. typhimurium LT2": {"test_system": "S. typhimurium LT2", "test": "survival of mice inoculated with live Salmonella typhimurium LT2", "format": "in vivo, mice (female, Balb/c)", "settings": "for rescue from lethal infection in words: oral and intraperitoneal routes; for survival rate: 100 μg", "experimental": "Mice (female, Balb/c, 6-8 weeks) were administered a dose of live S. typhimurium LT2 (8×10^8/mouse) via the oral route. Without treatment, this dose of live organisms led to the death of all animals between day 3 and 4 (i.e. LD100 at day 3 or 4). Following challenge with Salmonella, peptide 20-44 (0-150 μg/mouse) was administered via the intravenous; oral, and intraperitoneal routes. […] At day 6 post infection, 100% of animals given a dose of 125 μg of peptide 20-44 intravenously survived. 80% of mice given 50, 100 and 150 μg of peptide survived through to day 5. Data shown in FIG. 10 strongly indicate that peptide 20-44 may also be given via the oral route since 80% survival rates were obtained with 100 μg of peptide. This is evidence that the peptide is not destroyed by the acid environment and enzymes of the stomach and indicates an alternative route of administration to the intravenous route discussed in FIG. 9. The third route of administration of peptide 20-44 was the intraperitoneal route. This is often the method of choice in a veterinary situation."}, "[3]": {"settings": "U.S. Pat. Nos. 5,607,916 and 5,458,874; cited from earlier work"}, "[4]": {"test": "LPS binding in the in vitro limulus amebocyte lysate (LAL) assay", "settings": "FIGS. 6-7", "experimental": "We tested the ability of the peptide analogs of the present invention to bind LPS in the in vitro limulus amebocyte lysate (LAL) assay and compared them with the parent peptide, 20-44. […] Similarly, peptide 20-44ser42 was also capable of neutralizing the effect of monophosphoryl lipid A at concentrations greater than 500 μg/ml (FIG. 7)."}, "[5]": {"settings": "intravenous infusion 3.0 mg/kg with E. coli LPS 250 μg/kg over 30 min; cited from earlier work"}, "[6]": {"settings": "cited from earlier work"}, "Salmonella typhimurium": {"test_system": "Salmonella typhimurium", "settings": "cited from earlier work"}, "Escherichia coli": {"test_system": "Escherichia coli", "settings": "cited from earlier work"}, "Pseudomonas aeruginosa": {"test_system": "Pseudomonas aeruginosa", "settings": "cited from earlier work"}, "Enterococcus faecalis": {"test_system": "Enterococcus faecalis", "settings": "cited from earlier work"}, "Staphylococcus aureus": {"test_system": "Staphylococcus aureus", "settings": "cited from earlier work"}, "[7]": {"settings": "75 μM (200 μg/ml), highest concentration tested, FIG. 2"}}, "note": "Entries after “also recorded” stand apart in the source; their conditions may differ. Read-outs that look alike come from different tables or passages of the source. Positions of bridges follow the written chain, without caps; N, C: chain ends. Residues, ends and D or L forms follow the SMILES beside them. No end group written: not given here. *: point of attachment. Acm = CC(=O)NC*", "data": [{"compound": "NQGRHFCGGALIHARFVMTAASSFQ [Peptide 20-44ser42]", "values": [{"measurement": "bacteria killed", "setting": "S. typhimurium SH9178; 12.5 μM", "value": 66.6, "unit": "%"}, {"measurement": "bacteria killed", "setting": "S. typhimurium SH9178; [7]", "value": 97.8, "unit": "%"}, {"measurement": "bacteria killed", "setting": "[1]", "value": 65, "unit": "%"}, {"measurement": "solubility compared with the 20-44 peptide", "setting": "[2]", "value": "greater than the 20-44 peptide"}]}, {"compound": "20-44ACM: sequence of 20-44 with both cysteines permanently protected with an ACM (boc-cys-acetamidomethyl) side group; control peptide (NQGRHFC(Acm)GGALIHARFVMTAASC(Acm)FQ; listed as Homo Sapiens) [Peptide 20-44ACM]", "values": [{"measurement": "rescue from lethal infection in words", "setting": "S. typhimurium LT2; intravenous", "value": "succumbed to infection very rapidly; also recorded: no activity"}, {"measurement": "antibiotic / antimicrobial activity in words", "setting": "[3]", "value": "ineffective antibiotics"}]}, {"compound": "20-44ser26/42: homologous to peptide 20-44, serines substituted for cysteines at positions 26 and 42 (NQGRHFSGGALIHARFVMTAASSFQ; listed as Homo Sapiens)", "values": [{"measurement": "antibiotic / antimicrobial activity in words", "setting": "[3]", "value": "ineffective antibiotics"}]}, {"compound": "CC[C@H](C)[C@@H]1NC(=O)[C@H](CC(C)C)NC(=O)[C@H](C)NC(=O)CNC(=O)CNC(=O)[C@@H](NC(=O)[C@H](Cc2ccccc2)NC(=O)[C@H](Cc2c[nH]cn2)NC(=O)[C@H](CCCNC(=N)N)NC(=O)CNC(=O)[C@H](CCC(N)=O)NC(=O)[C@@H](N)CC(N)=O)CSSC[C@@H](C(=O)N[C@@H](Cc2ccccc2)C(=O)N[C@@H](CCC(N)=O)C(=O)O)NC(=O)[C@H](CO)NC(=O)[C@H](C)NC(=O)[C@H](C)NC(=O)[C@H]([C@@H](C)O)NC(=O)[C@H](CCSC)NC(=O)[C@H](C(C)C)NC(=O)[C@H](Cc2ccccc2)NC(=O)[C@H](CCCNC(=N)N)NC(=O)[C@H](C)NC(=O)[C@H](Cc2c[nH]cn2)NC1=O", "note": "[Peptide 20-44] (H-NQGRHFCGGALIHARFVMTAASCFQ-OH; disulfide 7-23; N-terminus and C-terminus assumed)", "values": [{"measurement": "bactericidal activity in words", "setting": "S. typhimurium SH9178; FIG. 2", "value": "significant antibiotic activity"}, {"measurement": "binding of LPS / monophosphoryl lipid A in words", "setting": "[4]", "value": "bound LPS"}, {"measurement": "mice survived", "setting": "S. typhimurium LT2; 50, 100 and 150 μg (intravenous by context, FIG. 9), through to day 5", "value": 80, "unit": "%"}, {"measurement": "survival rate", "setting": "S. typhimurium LT2; intraperitoneal, day 5 post infection, FIG. 11", "value": 80, "unit": "%"}, {"measurement": "survival rate", "setting": "S. typhimurium LT2; intraperitoneal, day 6 post infection, FIG. 11", "value": 60, "unit": "%"}, {"measurement": "animals survived", "setting": "S. typhimurium LT2; intravenous, 125 μg, day 6 post infection, FIG. 9", "value": 100, "unit": "%"}, {"measurement": "rescue from lethal infection in words", "setting": "S. typhimurium LT2; intravenous", "value": "can rescue animals from lethal infection"}, {"measurement": "survival rate", "setting": "S. typhimurium LT2; oral, FIG. 10", "value": 80, "unit": "%"}, {"measurement": "effect on LPS-induced circulatory shock in words", "setting": "[5]", "value": "prevented LPS-induced hyperdynamic and hypodynamic circulatory shock"}, {"measurement": "7-day survival rate", "setting": "[6]; 0.2 mg/kg intravenously after lethal dose of LPS", "value": 30, "unit": "%"}, {"measurement": "7-day survival rate", "setting": "[6]; 1.0 mg/kg intravenously after lethal dose of LPS", "value": 50, "unit": "%"}, {"measurement": "7-day survival rate", "setting": "[6]; 5.0 mg/kg intravenously after lethal dose of LPS", "value": 80, "unit": "%"}, {"measurement": "endotoxin-induced increase in circulating TNFα", "setting": "[6]; 5.0 mg/kg, sensitized rats", "value": "significantly inhibited"}, {"measurement": "in vitro bactericidal activity in words", "setting": "Salmonella typhimurium", "value": "strong in vitro bactericidal activity"}, {"measurement": "in vitro bactericidal activity in words", "setting": "Escherichia coli", "value": "strong in vitro bactericidal activity"}, {"measurement": "in vitro bactericidal activity in words", "setting": "Pseudomonas aeruginosa", "value": "strong in vitro bactericidal activity"}, {"measurement": "activity in words", "setting": "Enterococcus faecalis", "value": "active"}, {"measurement": "activity in words", "setting": "Staphylococcus aureus", "value": "active"}]}, {"compound": "NQGRHFSGGALIHARFVMTAASCFQ [Peptide 20-44ser26]", "values": [{"measurement": "bacteria killed", "setting": "S. typhimurium SH9178; 12.5 μM", "value": 70.4, "unit": "%"}, {"measurement": "bacteria killed", "setting": "S. typhimurium SH9178; [7]", "value": 99.6, "unit": "%"}, {"measurement": "bacteria killed", "setting": "[1]", "value": 73, "unit": "%"}, {"measurement": "solubility compared with the 20-44 peptide", "setting": "[2]", "value": "greater than the 20-44 peptide"}]}]}
